Patent publication US20130338203A1, “TREATMENT OF ARTERIAL AGEING BY COMBINATION OF RAAS INHIBITOR AND HMG-CoA REDUCTASE INHIBITOR” (FARMICOM PHARMACEUTICAL COMPANY D.O.O., priority 2011, published 2013)
Read-outs that look alike come from different tables or passages of the source.

Columns and labels:
[1] = in vivo; cited from earlier work
thoracic aorta = experiment: Endothelium-dependent relaxation of thoracic aorta after 6 weeks oral treatment (Example 13); assay type: in vivo, Wistar rats; details: rats, 6 weeks treatment p.o., NS
Protocol: Sixty Wistar rats of both sexes weighing 230-280 g, 20-24 weeks of age, were obtained from the Faculty of Medicine, Ljubljana. […] A regular 12 h circadian cycle was maintained and between 5 and 7 animals were kept in each cage. The temperature of the experimental environment was 23-25° C. […] After 4-8 weeks of therapy the animals were sacrificed, blood samples were collected and heart and thoracic aorta were isolated. Each group was composed of the same number of male and female rats. […] After mounting, rings were allowed to equilibrate at 20 mN resting tension (found to be optimal in previous experiments) for 60 min. During this period, the tension was periodically adjusted to the desired level and the K-H solution was changed every 10 minutes. After the equilibration period, the rings were contracted three times with 60 mmol/L KCl to achieve stable contractions. […] In control animals the endothelium-dependent relaxation of the thoracic aorta was constant. However, in rats treated with drugs the percentage of endothelium-dependent relaxation was increased in comparison to the control group.

isolated rat heart [2] = experiment: LDH release rate, myocardial ischaemic-reperfusion injury of isolated heart (Example 12); details: losartan 1 μM; P < 0.01
isolated rat heart [3] = experiment: Coronary flow rate of isolated heart, ischaemia-reperfusion (Example 12)
[4] = tested on: isolated rat aortic rings; experiment: Endothelium-dependent relaxation of isolated aortic rings after incubation with drugs (Example 12)
heart = experiment: Coronary flow rate after 6 weeks oral treatment (Example 13); assay type: in vivo, Wistar rats; details: rats, 6 weeks treatment p.o., 40-minute ischemia, reperfusion, P < 0.001
Protocol: Sixty Wistar rats of both sexes weighing 230-280 g, 20-24 weeks of age, were obtained from the Faculty of Medicine, Ljubljana. […] A regular 12 h circadian cycle was maintained and between 5 and 7 animals were kept in each cage. The temperature of the experimental environment was 23-25° C. […] After 4-8 weeks of therapy the animals were sacrificed, blood samples were collected and heart and thoracic aorta were isolated. Each group was composed of the same number of male and female rats.

common carotid artery = details: cited from earlier work
carotid artery = details: cited from earlier work
arterial wall = details: Ex 8 valsartan group, cited from earlier work
brachial artery = details: cited from earlier work; for FMD, improvement (increase): Ex 8 valsartan group, 30 days vs before
[5] = tested on: high sensitivity C-reactive protein (hsCRP); details: Ex 9 valsartan group, 1 month treatment; calculated on data from co-pending patent application; cited from earlier work
[6] = Ex 8, 1 month treatment period with Valsartan only
[7] = Ex 8 valsartan group, 20 mg daily, 30 days vs before
[8] = Ex 8 valsartan group, 20 mg daily, 30 days
[9] = Ex 8 valsartan group, 7 months of rest period

CC(C)n1c(/C=C/C(O)CC(O)CC(=O)O)c(-c2ccc(F)cc2)c2ccccc21 (stereo not drawn) [fluvastatin]
half-life time (t1/2) in the blood plasma [1]: about 2.5 hours

CCCCc1nc(Cl)c(CO)n1Cc1ccc(-c2ccccc2-c2nn[nH]n2)cc1 [losartan]
Increase of endothelium dependent relaxation compared to controls (thoracic aorta; daily dose 2 mg/kg): 7.3%
Decrease of the LDH release rates compared to controls (isolated rat heart [2]): 58.6%
Increase in coronary flow compared to controls (isolated rat heart [3]; losartan 1 μM, P < 0.001): 67.3%
Endothelium dependent relaxation compared to controls ([4]; losartan 10 μM, P < 0.01): 17.0%
Increase in coronary flow compared to controls (heart; daily dose 2 mg/kg): 89.6%
half-life time (t1/2) in the blood plasma [1]: 1.5 to 2 h

CCCCC(=O)N(Cc1ccc(-c2ccccc2-c2nnn[nH]2)cc1)[C@H](C(=O)O)C(C)C [valsartan]
PWV decreased by (common carotid artery; [6]): 7.2%
PWV, improvement (common carotid artery; [7]): −7.2%
PWV, after treatment (common carotid artery; [8]): 5.41 m/s
PWV, residual improvement in % of effect achieved after 1 month of treatment (common carotid artery; [9]): 9.9%
PWV, before treatment (common carotid artery; Ex 8 valsartan group, baseline): 5.80 m/s
β-stiffness of the carotid artery decreased by (carotid artery; [6]): 13.7%
β-stiffness, improvement (carotid artery; [7]): −13.7%
β-stiffness, after treatment (carotid artery; [8]): 6.40 U
β-stiffness, residual improvement in % of effect achieved after 1 month of treatment (carotid artery; [9]): 9.2%
β-stiffness, before treatment (carotid artery; Ex 8 valsartan group, baseline): 7.28 U
Arterial age according to age normogram, improvement (arterial wall; 20 mg daily, 30 days vs before): −7.0 years
Arterial age according to age normogram, after treatment (arterial wall; 20 mg daily, 30 days): 38.0 years
Arterial age according to age-related normogram (arterial wall; 7 months of rest period): 43.5 years
Arterial age, difference to before treatment (in brackets) (arterial wall; 7 months of rest period): −1.5 years
Arterial age according to age normogram, before treatment (arterial wall; baseline): 45.0 years
FMD, residual improvement in % of effect achieved after 1 month of treatment (brachial artery; Ex 8 valsartan group (20 mg daily, 30 days), 7 months of rest period): 30.4%
FMD, improvement (increase) (brachial artery; 20 mg daily): +156.0%
FMD, improvement (increase) (brachial artery; 20 mg daily, listed as Valsartan): 156.0%
FMD, after treatment (brachial artery; Ex 8 valsartan group: healthy men 43.0 y (n=20), 20 mg daily, 30 days, data from co-pending patent application): 5.40%
FMD, before treatment (brachial artery; Ex 8 valsartan group: healthy men 43.0 y (n=20), baseline, data from co-pending patent application): 2.11%
half-life time (t1/2) in the blood plasma [1]: about 6.0 hours
Change in hs-CRP value after treatment [5]: +2.45%

CC(C)c1c(C(=O)Nc2ccccc2)c(-c2ccccc2)c(-c2ccc(F)cc2)n1CC[C@@H](O)C[C@@H](O)CC(=O)O [atorvastatin]
Increase of endothelium dependent relaxation compared to controls (thoracic aorta; daily dose 5 mg/kg): 6.9%
Increase in coronary flow compared to controls (isolated rat heart [3]; atorvastatin 0.1 μM, P < 0.05): 52.9%
Endothelium dependent relaxation compared to controls ([4]; atorvastatin 1 μM, P < 0.001): 21.1%
Increase in coronary flow compared to controls (heart; daily dose 5 mg/kg): 86.9%
